In ChEMBL document CHEMBL2169878 (J Med Chem, 2012):
Activity calls are given as the source filed them. The rule behind the calls is not given here.

Columns and labels:
[1] = test system: Plasmodium berghei; assay: Antimalarial activity against Plasmodium berghei ANKA expressing GFP infected in mouse assessed as cure from infection at 30 mg/kg, po administered 24 hrs post-infection measured on day 30; type: functional, organism-based; design: dose 30 mg/kg
[2] = test system: Heart; assay: Cardiotoxicity against Sprague-Dawley rat Langendorff perfused heart assessed as atrioventricular conduction time at 0.1 uM by electrophysiological analysis (reference value: 42.67 2.29 ms); type: toxicity, tissue-based
[3] = test system: Plasmodium falciparum; assay: Resistance ratio of IC50 for chloroquine-resistant Plasmodium falciparum W2 to IC50 for chloroquine-sensitive Plasmodium falciparum D10; type: functional
[4] = (§1) Cardiotoxicity against Sprague-Dawley rat Langendorff perfused heart assessed as reduction in left ventricular pressure by electrophysiological analysis; type: toxicity, tissue-based; conditions: Sprague-Dawley, Langendorff perfused heart
[5] = test system: Heart; assay: as §1; type: toxicity, tissue-based
[6] = molecular target: T1, Chloroquine resistance transporter (Plasmodium falciparum) (UniProt Q9N623); assay: Inhibition of chloroquine-resistant Plasmodium falciparum Dd2 CRT expressed in Xenopus laevis oocyte assessed as inhibition of [3H]chloroquine uptake at 100 uM measured from 1 to 2 hrs
T1 sequence (whole entry): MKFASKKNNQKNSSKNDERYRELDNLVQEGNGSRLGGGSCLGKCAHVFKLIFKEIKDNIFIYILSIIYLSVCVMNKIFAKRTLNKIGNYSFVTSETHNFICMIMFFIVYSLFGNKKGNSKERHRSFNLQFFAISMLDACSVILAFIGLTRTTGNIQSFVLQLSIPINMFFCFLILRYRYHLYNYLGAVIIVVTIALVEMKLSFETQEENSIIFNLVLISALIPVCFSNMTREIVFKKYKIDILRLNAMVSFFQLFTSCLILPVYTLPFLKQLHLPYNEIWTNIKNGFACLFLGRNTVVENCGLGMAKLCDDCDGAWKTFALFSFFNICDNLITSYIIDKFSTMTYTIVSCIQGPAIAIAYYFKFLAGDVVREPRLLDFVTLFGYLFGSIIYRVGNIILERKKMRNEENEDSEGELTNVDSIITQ

[7] = test system: Salmonella typhimurium; assay: Mutagenicity against Salmonella typhimurium TA98 assessed as revertants at 12 uM incubated for 90 mins followed by drug washout measured after 2 days relative to positive control; type: toxicity, organism-based; conditions: salmonella enterica subsp. enterica serovar typhimurium
[8] = Cytotoxicity against human HepG2 cells after 24 hrs by neutral red dye uptake assay; type: cell-based; conditions: read-out: TC50
[9] = test system: Heart; assay: Cardiotoxicity against Sprague-Dawley rat Langendorff perfused heart assessed as QTc time interval at 0.1 uM by electrophysiological analysis (reference value: 145.78 10.53 ms); type: toxicity, tissue-based
[10] = test system: Heart; assay: Cardiotoxicity against Sprague-Dawley rat Langendorff perfused heart assessed as intraventricular conduction time at 30 uM by electrophysiological analysis (reference value: 13.92 0.42 ms); type: toxicity, tissue-based
[11] = Apparent volume of distribution in CD1 albino mouse at 50 mg/kg, po; type: ADME, organism-based; design: dose 50 mg/kg, route oral; conditions: in vivo, read-out: Vc/F
[12] = test system: Heart; assay: Cardiotoxicity against Sprague-Dawley rat Langendorff perfused heart assessed as cycle length time at 30 uM by electrophysiological analysis (reference value: 258.62 8.87 ms); type: toxicity, tissue-based
[13] = test system: Plasmodium falciparum; assay: Antiplasmodial activity against chloroquine-sensitive Plasmodium falciparum NF54 infected in human erythrocytes assessed as inhibition of [3H]hypoxanthine incorporation incubated for 48 hrs prior to [3H]hypoxanthine addition measured after 48 hrs by liquid scintillation counting; type: functional, organism-based
[14] = test system: Salmonella typhimurium; assay: Mutagenicity against Salmonella typhimurium TA100 assessed as revertants at 48 uM incubated for 90 mins followed by drug washout measured after 2 days relative to positive control; type: toxicity, organism-based; conditions: salmonella enterica subsp. enterica serovar typhimurium
[15] = test system: Plasmodium falciparum; assay: Resistance ratio of IC50 for chloroquine-resistant Plasmodium falciparum K1 to IC50 for chloroquine-sensitive Plasmodium falciparum NF54; type: functional
[16] = test system: Salmonella typhimurium; assay: Mutagenicity against Salmonella typhimurium TA100 assessed as revertants at 6 uM incubated for 90 mins followed by drug washout measured after 2 days relative to positive control; type: toxicity, organism-based; conditions: salmonella enterica subsp. enterica serovar typhimurium, 1.5 h
[17] = test system: Plasmodium falciparum; assay: Antiplasmodial activity against chloroquine-resistant Plasmodium falciparum W2 infected in human RBC after 72 hrs by parasite lactate dehydrogenase assay; type: functional, organism-based; conditions: W2, 72 h
[18] = test system: Plasmodium falciparum; assay: Antiplasmodial activity against chloroquine-sensitive Plasmodium falciparum D10 infected in human RBC after 72 hrs by parasite lactate dehydrogenase assay; type: functional, organism-based; conditions: D10, 72 h
[19] = molecular target: T1, Chloroquine resistance transporter (Plasmodium falciparum); assay: Inhibition of chloroquine-sensitive Plasmodium falciparum D10 CRT expressed in Xenopus laevis oocyte assessed as inhibition of [3H]chloroquine uptake at 100 uM measured from 1 to 2 hrs
[20] = Clearance in CD1 albino mouse at 50 mg/kg, po; type: ADME, organism-based; design: dose 50 mg/kg, route oral; conditions: in vivo
[21] = test system: Heart; assay: Cardiotoxicity against Sprague-Dawley rat Langendorff perfused heart assessed as QT time interval at 30 uM by electrophysiological analysis (reference value: 73.01 4.52 ms); type: toxicity, tissue-based
[22] = Elimination half life in CD1 albino mouse plasma at 50 mg/kg, po measured from 6 to 48 hrs post-dosing; type: ADME, organism-based; design: dose 50 mg/kg, route oral; conditions: read-out: beta t1/2 (converted)
[23] = test system: Heart; assay: Cardiotoxicity against Sprague-Dawley rat Langendorff perfused heart assessed as heart rate at 10 uM by electrophysiological analysis (reference value: 236.68 7.83 bpm); type: toxicity, tissue-based
[24] = Inhibition of beta hematin formation assessed as molar equivalent of the compound required to inhibit 50 % beta-hematin formation after 18 hrs by spectrophotometric microassay relative to hemin; type: functional
[25] = test system: Salmonella typhimurium; assay: Mutagenicity against Salmonella typhimurium TA100 assessed as revertants at 12 uM incubated for 90 mins followed by drug washout measured after 2 days relative to positive control; type: toxicity, organism-based; conditions: salmonella enterica subsp. enterica serovar typhimurium
[26] = test system: Salmonella typhimurium; assay: Mutagenicity against Salmonella typhimurium TA100 assessed as revertants at 3 uM incubated for 90 mins followed by drug washout measured after 2 days relative to positive control; type: toxicity, organism-based; conditions: salmonella enterica subsp. enterica serovar typhimurium, 1.5 h
[27] = test system: Heart; assay: Cardiotoxicity against Sprague-Dawley rat Langendorff perfused heart assessed as cycle length time at 0.1 uM by electrophysiological analysis (reference value: 258.62 8.87 ms); type: toxicity, tissue-based
[28] = test system: Salmonella typhimurium; assay: Mutagenicity against Salmonella typhimurium TA98 assessed as revertants at 24 uM incubated for 90 mins followed by drug washout measured after 2 days relative to positive control; type: toxicity, organism-based; conditions: salmonella enterica subsp. enterica serovar typhimurium, 1.5 h
[29] = test system: Heart; assay: Cardiotoxicity against Sprague-Dawley rat Langendorff perfused heart assessed as heart rate at 1 uM by electrophysiological analysis (reference value: 236.68 7.83 bpm); type: toxicity, tissue-based
[30] = test system: Plasmodium berghei; assay: Antimalarial activity against Plasmodium berghei ANKA expressing GFP infected in mouse assessed as reduction in parasitemia at 50 mg/kg, po administered QD for 3 days measured 24 hrs post-final dosing by flow cytometric analysis; type: functional; design: scale not given: the % may be the effect or the level left
[31] = test system: Plasmodium berghei; assay: Antimalarial activity against Plasmodium berghei ANKA expressing GFP infected in mouse assessed as mean survival days at 30 mg/kg, po administered 24 hrs post-infection (reference value: 6 to 7 days); type: functional
[32] = test system: Heart; assay: Cardiotoxicity against Sprague-Dawley rat Langendorff perfused heart assessed as heart rate at 30 uM by electrophysiological analysis (reference value: 236.68 7.83 bpm); type: toxicity, tissue-based
[33] = test system: Plasmodium berghei; assay: Antimalarial activity against Plasmodium berghei ANKA expressing GFP infected in mouse assessed as reduction in parasitemia at 30 mg/kg, po administered at 6,24,48 and 72 hrs post-infection measured 24 hrs post-final dosing by flow cytometric analysis; type: functional; design: scale not given: the % may be the effect or the level left
[34] = test system: Plasmodium berghei; assay: Antimalarial activity against Plasmodium berghei ANKA expressing GFP infected in mouse assessed as cure from infection at 30 mg/kg, po administered at 6,24,48 and 72 hrs post-infection measured on day 30; type: functional, organism-based; design: dose 30 mg/kg

Clc1ccc(C(Nc2ccnc3cc(Cl)ccc23)c2ccc(CN3CCNCC3)cc2)cc1 (racemic)
Activity [1]: inactive | Time [2]: 42.53 ms | Ratio IC50 [3]: 0.93 | IC50 [4]: 9500 nM | Activity [5]: Dose-dependent effect | inhibition [6]: Active | Activity [7]: 4% | CC50 at 24 h [8]: 1800 nM | Time [9]: 145.15 ms | Time [10]: 22.67 ms | Vd/F [11]: 153 L/kg | Time [12]: 317 ms | IC50 [13]: 17 nM | Activity [14]: 28% | Ratio IC50 [15]: 1.3 | Activity [16]: 13% | IC50 [17]: 58 nM | IC50 [18]: 62 nM | inhibition [19]: inactive | CL/F [20]: 82 mL/min/kg | Time [21]: 94.33 ms | half-life [22]: 22 h | Activity [23]: 216.05 bpm | inhibition [24]: Dose-dependent effect | Activity [25]: 17% | Activity [26]: 22% | Time [27]: 256.97 ms | Activity [28]: 4% | Activity [29]: 233.54 bpm | Activity [30]: 99.8% | MSD [31]: 15.8 days | Activity [32]: 116.31 bpm | Activity [33]: 99.8% | Activity [34]: inactive
